From US9873709B2 (priority 2013, dated 2018)

Tested on: JAK1-dependent STAT6 phosphorylation downstream of IL-13 stimulation in TF-1 human erythroleukemia cells
Experiment: cells
Conditions: TF-1, read-out: IL-13-pSTAT6 IC50

| Compound | IC50 [nM] |
| --- | --- |
| O=C(c1ccc(Nc2nc3c(N4CCC(O)(c5ccc(Cl)cc5)CC4)cccn3n2)cc1)N1CC2CNCC2C1 (centres unmarked) [Example 1-197, 2,3,3a,4,6,6a-hexahydro-1H-pyrrolo[3,4-c]pyrrol-5-yl-[4-[[8-[4-(4-chlorophenyl)-4-hydroxy-1-piperidyl]-[1,2,4]triazolo[1,5-a]pyridin-2-yl]amino]phenyl] methanone] | 158 |
| CN1CCC(N(C)C(=O)c2ccc(Nc3nc4c(C5=CCN(C(=O)N6CC(C#N)C6)CC5)cccn4n3)cc2)CC1 [Example 2-5, 4-[[8-[1-(3-cyanoazetidine-1-carbonyl)-3,6-dihydro-2H-pyridin-4-yl]-[1,2,4]triazolo[1,5-a]pyridin-2-yl]amino]-N-methyl-N-(1-methyl-4-piperidyl)benzamide] | 1090 |
| Cc1cc(N(C)C)cc(C2CCCN2C(=O)c2ccc(Nc3nc4c(C5=CCN(C(=O)CCC(F)(F)F)CC5)cccn4n3)cc2)n1 (centres unmarked) [Example 2-92, 1-[4-[2-[4-[2-[4-(dimethylamino)-6-methyl-2-pyridyl]pyrrolidine-1-carbonyl]anilino]-[1,2,4]triazolo[1,5-a]pyridin-8-yl]-3,6-dihydro-2H-pyridin-1-yl]-4,4,4-trifluoro-butan-1-one] | 20.9 |
| CN1CCC2(CC1)CN(C(=O)c1ccc(Nc3nc4c(C5=CCN(C(=O)CCC(F)(F)F)CC5)cccn4n3)cc1)C2 [Example 2-391, 4,4,4-trifluoro-1-[4-[2-[4-(7-methyl-2,7-diazaspiro[3.5]nonane-2-carbonyl)anilino]-[1,2,4]triazolo[1,5-a]pyridin-8-yl]-3,6-dihydro-2H-pyridin-1-yl]butan-1-one] | 5.7 |
| O=C(N[C@H]1CN2CCC1CC2)c1ccc(Nc2nc3c(N4CCC(O)(c5ccc(Cl)cc5)CC4)cccn3n2)cc1 [Example 1-89, 4-[[8-[4-(4-chlorophenyl)-4-hydroxy-1-piperidyl]-[1,2,4]triazolo[1,5-a]pyridin-2-yl]amino]-N-[(3R)-quinuclidin-3-yl]benzamide] | 127 |
| CN1CCC(N(C)C(=O)c2ccc(Nc3nc4c(C5=CCN(C(=O)CCC#N)CC5)cccn4n3)cc2)CC1 [Example 2-287, 4-[[8-[1-(3-cyanopropanoyl)-3,6-dihydro-2H-pyridin-4-yl]-[1,2,4]triazolo[1,5-a]pyridin-2-yl]amino]-N-methyl-N-(1-methyl-4-piperidyl)benzamide] | 248 |
| CCOC(=O)N1CC=C(c2cccn3nc(Nc4ccc(C(=O)N5CC6(CCNC6)C5)cc4)nc23)CC1 [Example 2-372, ethyl 4-[2-[4-(2,7-diazaspiro[3.4]octane-2-carbonyl)anilino]-[1,2,4]triazolo[1,5-a]pyridin-8-yl]-3,6-dihydro-2H-pyridine-1-carboxylate] | 296 |
| NC1CC2(CCN(C(=O)c3ccc(Nc4nc5c(C6=CCN(C(=O)CCC(F)(F)F)CC6)cccn5n4)cc3)CC2)C1 [Example 2-315, 1-[4-[2-[4-(2-amino-7-azaspiro[3.5]nonane-7-carbonyl)anilino]-[1,2,4]triazolo[1,5-a]pyridin-8-yl]-3,6-dihydro-2H-pyridin-1-yl]-4,4,4-trifluoro-butan-1-one] | 109 |
| O=C(CCC(F)(F)F)N1CC=C(c2cccn3nc(Nc4ccc(C(=O)N5CCC(c6cc7cccnc7[nH]6)CC5)cc4)nc23)CC1 [Example 2-155, 4,4,4-trifluoro-1-[4-[2-[4-[4-(1H-pyrrolo[2,3-b]pyridin-2-yl)piperidine-1-carbonyl]anilino]-[1,2,4]triazolo[1,5-a]pyridin-8-yl]-3,6-dihydro-2H-pyridin-1-yl]butan-1-one] | 132 |
| CCOC(=O)N1CC=C(c2cccn3nc(Nc4ccc(C(=O)N5CC6(CN(C(C)=O)C6)C5)cc4)nc23)CC1 [Example 2-432, ethyl 4-[2-[4-(6-acetyl-2,6-diazaspiro[3.3]heptane-2-carbonyl)anilino]-[1,2,4]triazolo[1,5-a]pyridin-8-yl]-3,6-dihydro-2H-pyridine-1-carboxylate] | 43 |
| O=C(CCC(F)(F)F)N1CC=C(c2cccn3nc(Nc4ccc(C(=O)N5C[C@@H]6CCN[C@@H]6C5)cc4)nc23)CC1 [Example 2-387, 1-[4-[2-[4-[(3aS,6aS)-2,3,3a,4,6,6a-hexahydro-1H-pyrrolo[2,3-c]pyrrole-5-carbonyl]anilino]-[1,2,4]triazolo[1,5-a]pyridin-8-yl]-3,6-dihydro-2H-pyridin-1-yl]-4,4,4-trifluoro-butan-1-one] | 147 |
| CC1CCCN(C2CCN(C(=O)c3ccc(Nc4nc5c(C6=CCN(C(=O)CCC(F)(F)F)CC6)cccn5n4)cc3)CC2)C1 (centres unmarked) [Example 2-461, 4,4,4-trifluoro-1-[4-[2-[4-[4-(3-methyl-1-piperidyl)piperidine-1-carbonyl]anilino]-[1,2,4]triazolo[1,5-a]pyridin-8-yl]-3,6-dihydro-2H-pyridin-1-yl]butan-1-one] | 6.1 |
| O=C(CCC(F)(F)F)N1CC=C(c2cccn3nc(Nc4ccc(C(=O)N5CCN(Cc6ccccn6)CC5)cc4)nc23)CC1 [Example 2-95, 4,4,4-trifluoro-1-[4-[2-[4-[4-(2-pyridylmethyl)piperazine-1-carbonyl]anilino]-[1,2,4]triazolo[1,5-a]pyridin-8-yl]-3,6-dihydro-2H-pyridin-1-yl]butan-1-one] | 4.3 |
| O=C(c1ccc(Nc2nc3c(N4CCC(O)(c5ccc(Cl)cc5)CC4)cccn3n2)cc1)N1CCC2(CCNCC2)CC1 [Example 1-218, [4-[[8-[4-(4-chlorophenyl)-4-hydroxy-1-piperidyl]-[1,2,4]triazolo[1,5-a]pyridin-2-yl]amino]phenyl]-(3,9-diazaspiro[5.5]undecan-3-yl)methanone] | 165 |
| CN1CCN(CCCNC(=O)c2ccc(Nc3nc4c(C5=CCN(C(=O)CCC(F)(F)F)CC5)cccn4n3)cc2)CC1 [Example 2-99, N-[3-(4-methylpiperazin-1-yl)propyl]-4-[[8-[1-(4,4,4-trifluorobutanoyl)-3,6-dihydro-2H-pyridin-4-yl]-[1,2,4]triazolo[1,5-a]pyridin-2-yl]amino]benzamide] | 29.4 |
| CC(CC(=O)N1CC=C(c2cccn3nc(Nc4ccc(C(=O)N(C)C5CCN(C)CC5)cc4)nc23)CC1)C(F)(F)F (centres unmarked) [Example 2-43, N-methyl-N-(1-methyl-4-piperidyl)-4-[[8-[1-(4,4,4-trifluoro-3-methyl-butanoyl)-3,6-dihydro-2H-pyridin-4-yl]-[1,2,4]triazolo[1,5-a]pyridin-2-yl]amino]benzamide] | 27.8 |
| CN(Cc1ccc2ncccc2c1)C(=O)c1ccc(Nc2nc3c(C4=CCN(C(=O)CCC(F)(F)F)CC4)cccn3n2)cc1 [Example 2-460, N-methyl-N-(6-quinolylmethyl)-4-[[8-[1-(4,4,4-trifluorobutanoyl)-3,6-dihydro-2H-pyridin-4-yl]-[1,2,4]triazolo[1,5-a]pyridin-2-yl]amino]benzamide] | 27.6 |
| O=C(CCC(F)(F)F)N1CC=C(c2cccn3nc(Nc4ccc(C(=O)N5CCN(C6CCCCC6)CC5)cc4)nc23)CC1 [Example 2-329, 1-[4-[2-[4-(4-cyclohexylpiperazine-1-carbonyl)anilino]-[1,2,4]triazolo[1,5-a]pyridin-8-yl]-3,6-dihydro-2H-pyridin-1-yl]-4,4,4-trifluoro-butan-1-one] | 8.3 |

Other lines, results leading:

| IC50 [nM] | Compound |
| --- | --- |
| 76.7 | CCOC(=O)N1CC=C(c2cccn3nc(Nc4ccc(C(=O)N[C@H]5CCCNC5)cc4)nc23)CC1 [Example 2-250, ethyl 4-[2-[4-[[(3S)-3-piperidyl]carbamoyl]anilino]-[1,2,4]triazolo[1,5-a]pyridin-8-yl]-3,6-dihydro-2H-pyridine-1-carboxylate] |
| 12.2 | CCOC(=O)N1CC=C(c2cccn3nc(Nc4ccc(C(=O)N5CC6(CCN(C)CC6)C5)cc4)nc23)CC1 [Example 2-175, ethyl 4-[2-[4-(7-methyl-2,7-diazaspiro[3.5]nonane-2-carbonyl)anilino]-[1,2,4]triazolo[1,5-a]pyridin-8-yl]-3,6-dihydro-2H-pyridine-1-carboxylate] |
| 7.9 | Cc1ccc(C2CCCN2C(=O)c2ccc(Nc3nc4c(C5=CCN(C(=O)CCC(F)(F)F)CC5)cccn4n3)cc2)nc1 (centres unmarked) [Example 2-143, 4,4,4-trifluoro-1-[4-[2-[4-[2-(5-methyl-2-pyridyl)pyrrolidine-1-carbonyl]anilino]-[1,2,4]triazolo[1,5-a]pyridin-8-yl]-3,6-dihydro-2H-pyridin-1-yl]butan-1-one] |
| 463 | CCOC(=O)N1CC=C(c2cccn3nc(Nc4ccc(C(=O)NCCC5CCCCN5)cc4)nc23)CC1 (centres unmarked) [Example 2-428, ethyl 4-[2-[4-[2-(2-piperidyl)ethylcarbamoyl]anilino]-[1,2,4]triazolo[1,5-a]pyridin-8-yl]-3,6-dihydro-2H-pyridine-1-carboxylate] |
| 11.9 | CCOC(=O)N1CC=C(c2cccn3nc(Nc4ccc(C(=O)N5CC6(CCN(C)C6)C5)cc4)nc23)CC1 [Example 2-68, ethyl 4-[2-[4-(7-methyl-2,7-diazaspiro[3.4]octane-2-carbonyl)anilino]-[1,2,4]triazolo[1,5-a]pyridin-8-yl]-3,6-dihydro-2H-pyridine-1-carboxylate] |
| 71.4 | O=C(NCC1CCNCC1)c1ccc(Nc2nc3c(C4=CCN(C(=O)CCC(F)(F)F)CC4)cccn3n2)cc1 [Example 2-84, N-(4-piperidylmethyl)-4-[[8-[1-(4,4,4-trifluorobutanoyl)-3,6-dihydro-2H-pyridin-4-yl]-[1,2,4]triazolo[1,5-a]pyridin-2-yl]amino]benzamide] |
| 226 | CCOC(=O)N1CC=C(c2cccn3nc(Nc4ccc(C(=O)NCC5CCNCC5)cc4)nc23)CC1 [Example 2-425, ethyl 4-[2-[4-(4-piperidylmethylcarbamoyl)anilino]-[1,2,4]triazolo[1,5-a]pyridin-8-yl]-3,6-dihydro-2H-pyridine-1-carboxylate] |
| 4.4 | CC1CCN(C2CCN(C(=O)c3ccc(Nc4nc5c(C6=CCN(C(=O)CCC(F)(F)F)CC6)cccn5n4)cc3)CC2)CC1 [Example 2-208, 4,4,4-trifluoro-1-[4-[2-[4-[4-(4-methyl-1-piperidyl)piperidine-1-carbonyl]anilino]-[1,2,4]triazolo[1,5-a]pyridin-8-yl]-3,6-dihydro-2H-pyridin-1-yl]butan-1-one] |
